# Patent US20250355000A1, “URINARY BRANCHED-CHAIN AMINO ACIDS (UBCAAS) AS INSULIN RESISTANCE BIOMARKERS” (SKILLCELL, priority 2022, published 2025)
# Like-named read-outs stand apart in the source and are kept apart here.
# System: Leucine Dehydrogenase (LeuDH) from B. cereus containing a SUMO-protein domain
# Format: biochemical, Bacillus cereus
# Conditions: for A 600 nm (absorbance values for L-amino acids): 15 minutes at 37° C., 100 mM Tris-HCl pH7.5, MTT reduction
# Source text: The IDIr biochemical network uses the enzyme Leucine Dehydrogenase (LeuDH) for oxidizing the branched-chain amino acids (BCAA) and for producing the colorimetric substrate, blue reduced MTT. The absorbance values are proportional to BCAA levels. Detection and measurement branched-chain amino acids in biological fluids (serum and urine) correlate with insulin-resistance indexes. Thus, the substrate specificity (other L-amino acids than BCAA) of Leucine Dehydrogenase (LeuDH) from B. cereus containing a SUMO-protein domain needs to be verified to avoid erroneous results using IDIr test.
# Analysis of the substrate specificity of the Leucine Dehydrogenase co-expressed with SUMO-protein domain was done using 18 natural proteinogenic L-amino acids in the same conditions used for determining the kinetic parameter of LeuDH with BCAA as substrates.
# All solutions were prepared in 100 mM Tris-HCl pH7.5 buffer
# • NAD+50 mM • Ascorbate Oxidase 10 U/mL • 1M-PMS 0.2 mM
# • MTT 2 mM • Leucine Dehydrogenase 75 U/mL • L-amino acids • L-Leucine 1 mM • L-Valine 1 mM • L-Isoleucine 1 mM • L-Alanine 1 mM • L-Arginine 1 mM • L-Aspartate 1 mM • L-Glycine 1 mM • L-Glutamate 1 mM • L-Glutamine 1 mM • L-Histidine 1 mM • L-Lysine 1 mM • L-Methionine 1 mM • L-Phenylalanine 1 mM • L-Proline 1 mM • L-Serine 1 mM • L-Threonine 1 mM • L-Tryptophan 1 mM • L-Tyrosine 1 mM
# 8 μL of A Solution were pre-incubated with 53 μL of each L-amino acid separately in a well of the microplate for 5 minutes at 37° C. Then, 4 μL of B Solution were added. The kinetics of the reactions were followed during 30 minutes at 37° C. Absorbances were read at 600 nm every 60 seconds.
# Blanks were performed using Tris-HCl 100 mM pH 7.5 buffer containing no L-amino acid during the incubation with A solution. Experiments were performed in duplicates. Results were normalized to the oxidation of L-leucine at 15 minutes.
# Oxidation of L-amino acids was followed by colorimetric reduction of Thyazolyl Blue Tetrazolium Bromide. Absorbance at 600 nm is proportional to the concentration of L-amino acids in solution.
# [1] = normalized to L-Leucine oxidation at 15 minutes (100%), 37° C., L-amino acid 1 mM
SMILES,A 600 nm (absorbance values for L-amino acids) (L-amino acid 1 mM),Normalized activity (%) [1] [%],Normalized activity (%)
"N[C@@H](CC(=O)O)C(=O)O [ASP, L-Aspartate]",0.000,0.0,–
"C[C@@H](O)[C@H](N)C(=O)O [THR, L-Threonine]",0.002,0.3,–
"N[C@@H](Cc1ccc(O)cc1)C(=O)O [TYR, L-Tyrosine]",0.002,0.3,–
"NCC(=O)O [GLY, L-Glycine]",0.001,–,0.1
"NC(=O)CC[C@H](N)C(=O)O [GLN, L-Glutamine]",0.001,0.2,–
"N=C(N)NCCC[C@H](N)C(=O)O [ARG, L-Arginine]",0.003,0.4,–
"N[C@@H](CCC(=O)O)C(=O)O [GLU, L-Glutamate]",0.002,0.3,–
"N[C@@H](CO)C(=O)O [SER, L-Serine]",0.001,0.2,–
"CC(C)[C@H](N)C(=O)O [VAL, L-Valine]",0.612,104.3,–
"CSCC[C@H](N)C(=O)O [MET, L-Methionine]",0.019,–,3.2
"O=C(O)[C@@H]1CCCN1 [PRO, L-Proline]",0.008,–,1.3
"N[C@@H](Cc1ccccc1)C(=O)O [PHE, L-Phenylalanine]",0.002,0.3,–
"C[C@H](N)C(=O)O [ALA, L-Alanine]",0.002,0.3,–
"N[C@@H](Cc1c[nH]cn1)C(=O)O [HIS, L-Histidine]",0.001,0.2,–
"N[C@@H](Cc1c[nH]c2ccccc12)C(=O)O [TRP, L-Tryptophan]",0.003,0.4,–
"CC[C@H](C)[C@H](N)C(=O)O [ILE, L-Isoleucine]",0.601,102.5,–
"CC(C)C[C@H](N)C(=O)O [LEU, L-Leucine]",0.587,100.0,–
"NCCCC[C@H](N)C(=O)O [LYS, L-Lysine]",0.001,0.1,–
